What was measured:
[1] = target: T1, human O-GlcNAcase (hOGA) (Homo sapiens, UniProt O60502); experiment: Enzyme inhibitory activity test against hOGA (4-MU-GlcNAc substrate, end-point fluorescence; Dixon plots for Ki); assay type: biochemical; conditions: for inhibition at 100 µM: 100 μM inhibitor, 40 μM 4-MU-GlcNAc, 30°C, 30 min, read-out: Inhibition rate at 100 μM (%) hOGA; for inhibition at 100 µM / Ki: pH 6.5; for Ki: Dixon plots, 4-MU-GlcNAc 40, 20, 10 μM; for inhibitory mechanism toward hOGA: kinetic studies via Dixon plots
T1 construct: made in house; host or cells: Escherichia coli BL21(DE3)
T1 sequence (O60502 1-916): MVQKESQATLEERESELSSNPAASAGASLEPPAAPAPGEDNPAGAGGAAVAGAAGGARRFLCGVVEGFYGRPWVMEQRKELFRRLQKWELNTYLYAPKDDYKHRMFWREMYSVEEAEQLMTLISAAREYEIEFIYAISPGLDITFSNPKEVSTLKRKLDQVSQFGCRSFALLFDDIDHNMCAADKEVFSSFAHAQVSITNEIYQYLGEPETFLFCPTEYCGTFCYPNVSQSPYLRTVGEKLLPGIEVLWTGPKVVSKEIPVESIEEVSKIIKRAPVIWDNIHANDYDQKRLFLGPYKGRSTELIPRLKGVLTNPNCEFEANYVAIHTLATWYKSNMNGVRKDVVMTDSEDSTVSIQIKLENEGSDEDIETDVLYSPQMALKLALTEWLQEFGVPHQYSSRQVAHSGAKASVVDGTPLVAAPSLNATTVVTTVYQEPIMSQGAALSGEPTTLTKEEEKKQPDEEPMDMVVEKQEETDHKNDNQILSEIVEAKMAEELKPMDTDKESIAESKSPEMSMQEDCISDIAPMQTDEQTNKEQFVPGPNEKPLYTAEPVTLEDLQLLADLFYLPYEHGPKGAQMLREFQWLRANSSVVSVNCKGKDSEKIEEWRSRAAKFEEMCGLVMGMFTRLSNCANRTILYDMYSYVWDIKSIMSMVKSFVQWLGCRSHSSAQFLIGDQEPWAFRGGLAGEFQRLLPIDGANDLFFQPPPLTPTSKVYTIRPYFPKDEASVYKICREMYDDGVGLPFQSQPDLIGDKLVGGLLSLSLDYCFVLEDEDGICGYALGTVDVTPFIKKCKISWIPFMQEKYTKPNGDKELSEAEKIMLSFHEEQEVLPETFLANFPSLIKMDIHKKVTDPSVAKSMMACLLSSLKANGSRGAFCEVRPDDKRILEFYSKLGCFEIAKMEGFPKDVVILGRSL
Description: (§1) Human O-GlcNAcase (hOGA) was expressed in Escherichia coli BL21(DE3) and purified according to previous methods (Kong et al., [2016]). Human β-N-acetylhexosaminidase B (HsHexB) was overexpressed in Pichia pastoris and then purified as described previously (Shen et al., [2018a]).
(§2) All target compounds were evaluated for their inhibitory activities against hOGA and HsHexB in end-point experiments. 4-Methylumbelliferyl N-acetyl-β-D-glucosaminide (4-MU-GlcNAc) was used as substrate. In a final assay volume of 100 μL, inhibitor and substrate (40 μM) were mixed with Britton-Robinson buffer (hOGA, pH 6.5; HsHexB, pH 4.5) and enzyme; then, the assay components were incubated at 30°C for 30 min. Subsequently, the enzymatic reaction was terminated by the addition of 100 μL 0.5 M Na2CO3 solution. The fluorescence of the liberated 4-methylumbelliferone (Mu) was quantified at an excitation of 366 nm and emission of 445 nm on a Varioskan Flash microplate reader (Thermo Fisher Scientific, USA). To determine the inhibition constant (Ki), Dixon plots were performed by changing the concentration of the 4-MU-GlcNAc (40, 20, and 10 μM).

[2] = target: T2, human β-N-acetylhexosaminidase B (HsHexB) (Homo sapiens, UniProt P07686); experiment: Enzyme inhibitory activity test against HsHexB (4-MU-GlcNAc substrate, end-point fluorescence; Dixon plots for Ki); assay type: biochemical; conditions: pH 4.5; for inhibition at 100 µM: 100 μM inhibitor, 40 μM 4-MU-GlcNAc, 30°C, 30 min, read-out: Inhibition rate at 100 μM (%) HsHexB; for Ki: Dixon plots, 4-MU-GlcNAc 40, 20, 10 μM
T2 construct: made in house; host or cells: Pichia pastoris
T2 sequence (P07686 122-556): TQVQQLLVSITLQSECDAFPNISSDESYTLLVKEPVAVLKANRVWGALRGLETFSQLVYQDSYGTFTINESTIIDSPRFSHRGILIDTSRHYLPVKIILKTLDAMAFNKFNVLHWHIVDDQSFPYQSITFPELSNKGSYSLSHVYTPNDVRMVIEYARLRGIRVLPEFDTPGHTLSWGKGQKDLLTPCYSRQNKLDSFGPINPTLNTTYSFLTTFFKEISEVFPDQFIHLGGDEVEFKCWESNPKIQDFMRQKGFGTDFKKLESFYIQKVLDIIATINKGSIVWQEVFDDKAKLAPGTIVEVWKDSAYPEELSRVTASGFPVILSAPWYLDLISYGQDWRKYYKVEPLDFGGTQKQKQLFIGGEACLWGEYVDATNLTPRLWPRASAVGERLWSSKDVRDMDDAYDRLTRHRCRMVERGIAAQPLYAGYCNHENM
Description: as §1, §2

Structure (SMILES)	inhibition at 100 µM [1] [%]	Ki [1] [µM]	increase in potency against hOGA ([1]; compared to lead compound 2 (Ki)) [fold]	inhibitory mechanism toward hOGA [1]	inhibition at 100 µM [2] [%]	Ki [2] [µM]	decrease in inhibitory potency against hOGA ([1]; 10d compared to 10a (Ki)) [fold]	potency against hOGA reduced ([1]; 16h (NHCH3) compared to 16d (CH2CH3))
CC(=O)N[C@@H]1[C@@H](O)[C@H](O)[C@@H](CO)O[C@H]1SCC(=O)NCCCN1C(=O)c2cccc3c(Br)ccc(c23)C1=O [Compound 10a]	98.7 ± 0.3	0.61 ± 0.02	~6	competitive inhibitors	36.5 ± 0.8	> 100	–	–
COc1ccc2c3c(cccc13)C(=O)N(CCCNC(=O)CS[C@@H]1O[C@H](CO)[C@@H](O)[C@H](O)[C@H]1NC(C)=O)C2=O [Compound 10b]	90.6 ± 0.5	4.43 ± 0.21	–	–	49.2 ± 1.4	> 100	–	–
CC(=O)N[C@@H]1[C@@H](O)[C@H](O)[C@@H](CO)O[C@H]1SCC(=O)NCCCN1C(=O)c2cccc3c(N(C)C)ccc(c23)C1=O [Compound 10c]	84.4 ± 1.7	9.72 ± 0.49	–	–	36.9 ± 0.2	> 100	–	–
CC(=O)N[C@@H]1[C@@H](O)[C@H](O)[C@@H](CO)O[C@H]1SCC(=O)NCCCN1C(=O)c2cccc3c(N4CCCCC4)ccc(c23)C1=O [Compound 10d]	93.1 ± 0.2	1.42 ± 0.02	–	competitive inhibitors	32.8 ± 2.7	> 100	2.3	–
O=C(CS[C@@H]1O[C@H](CO)[C@@H](O)[C@H](O)[C@H]1NC(=O)c1ccccc1)NCCCN1C(=O)c2cccc3c(N4CCCCC4)ccc(c23)C1=O [Compound 16a]	22 ± 0.5	> 100	–	–	12.2 ± 0.2	> 100	–	–

Now from value to molecule:

inhibition at 100 µM [1] [%]	Ki [1] [µM]	increase in potency against hOGA ([1]; compared to lead compound 2 (Ki)) [fold]	inhibitory mechanism toward hOGA [1]	inhibition at 100 µM [2] [%]	Ki [2] [µM]	decrease in inhibitory potency against hOGA ([1]; 10d compared to 10a (Ki)) [fold]	potency against hOGA reduced ([1]; 16h (NHCH3) compared to 16d (CH2CH3))	Structure (SMILES)
50.9 ± 0.8	> 100	–	–	15.8 ± 0.4	> 100	–	–	O=C(CS[C@@H]1O[C@H](CO)[C@@H](O)[C@H](O)[C@H]1NC(=O)c1ccc(F)cc1)NCCCN1C(=O)c2cccc3c(N4CCCCC4)ccc(c23)C1=O [Compound 16b]
9.7 ± 0.7	> 100	–	–	2 ± 1.1	> 100	–	–	O=C(CS[C@@H]1O[C@H](CO)[C@@H](O)[C@H](O)[C@H]1NC(=O)OCc1ccccc1)NCCCN1C(=O)c2cccc3c(N4CCCCC4)ccc(c23)C1=O [Compound 16c]
88 ± 1.5	1.69 ± 0.05	–	–	28.7 ± 2	> 100	–	–	CCC(=O)N[C@@H]1[C@@H](O)[C@H](O)[C@@H](CO)O[C@H]1SCC(=O)NCCCN1C(=O)c2cccc3c(N4CCCCC4)ccc(c23)C1=O [Compound 16d]
78.9 ± 1.9	12.8 ± 0.27	–	–	24.6 ± 1.5	> 100	–	–	CCCC(=O)N[C@@H]1[C@@H](O)[C@H](O)[C@@H](CO)O[C@H]1SCC(=O)NCCCN1C(=O)c2cccc3c(N4CCCCC4)ccc(c23)C1=O [Compound 16e]
72.2 ± 0.3	23.6 ± 0.43	–	–	21.4 ± 0.5	> 100	–	–	CC(C)C(=O)N[C@@H]1[C@@H](O)[C@H](O)[C@@H](CO)O[C@H]1SCC(=O)NCCCN1C(=O)c2cccc3c(N4CCCCC4)ccc(c23)C1=O [Compound 16f]
82.7 ± 1	6.37 ± 0.09	–	–	6.4 ± 0.7	> 100	–	–	O=C(CS[C@@H]1O[C@H](CO)[C@@H](O)[C@H](O)[C@H]1NC(=O)C(F)(F)F)NCCCN1C(=O)c2cccc3c(N4CCCCC4)ccc(c23)C1=O [Compound 16g]
85.5 ± 1.5	6.6 ± 0.22	–	–	25.2 ± 0.3	> 100	–	about 4 fold	CNC(=O)N[C@@H]1[C@@H](O)[C@H](O)[C@@H](CO)O[C@H]1SCC(=O)NCCCN1C(=O)c2cccc3c(N4CCCCC4)ccc(c23)C1=O [Compound 16h]
41.1 ± 0.6	> 100	–	–	49.1 ± 1.4	> 100	–	–	O=C(CS[C@@H]1O[C@H](CO)[C@@H](O)[C@H](O)[C@H]1NC(=O)c1ccccc1)NCCCN1C(=O)c2cccc3c(Br)ccc(c23)C1=O [Compound 16j]
